This is an account of results in ChEMBL document CHEMBL3734717, “New INH-pyrazole analogs: Design, synthesis and evaluation of antitubercular and antibacterial activity” (Bioorg Med Chem Lett, 2015).

Structures are written as SMILES. Converted amounts (≈) assume the structure as drawn.

The subject of data set [1] is Mycobacterium tuberculosis. As to the kind of experiment: Antitubercular activity against Mycobacterium tuberculosis H37Rv assessed as inhibition of cell growth after 5 days by microplate alamar blue assay. The class given is functional. As to conditions: 120 h.
Data set [2] relates to Staphylococcus aureus. The experiment in a line: Antibacterial activity against Staphylococcus aureus assessed as zone of inhibition at 50 ug/ml incubated for 18-24 hrs at 37 degC by disc diffusion method. The class given is functional. Conditions: read-out: IZ.
Data set [3] can be described thus: Cytotoxicity against African green monkey Vero cells assessed as growth inhibition at 62.5 ug/ml after 3 days by MTT assay. The class given is cell-based. Conditions: chlorocebus sabaeus, read-out: GI.
For data set [4], the system named is Staphylococcus aureus. The experiment in a line: Antibacterial activity against Staphylococcus aureus assessed as zone of inhibition at 75 ug/ml incubated for 18-24 hrs at 37 degC by disc diffusion method. The class given is functional. As to conditions: read-out: IZ.
Data set [5] relates to Escherichia coli. As to the kind of experiment: Antibacterial activity against Escherichia coli assessed as zone of inhibition at 50 ug/ml incubated for 18-24 hrs at 37 degC by disc diffusion method. Conditions: read-out: IZ. The format is functional.
Data set [6] relates to Pseudomonas aeruginosa. As to the kind of experiment: Antibacterial activity against Pseudomonas aeruginosa assessed as zone of inhibition at 50 ug/ml incubated for 18-24 hrs at 37 degC by disc diffusion method. The format is functional. Conditions: read-out: IZ.
The subject of data set [7] is Pseudomonas aeruginosa. The experiment in a line: Antibacterial activity against Pseudomonas aeruginosa assessed as zone of inhibition at 75 ug/ml incubated for 18-24 hrs at 37 degC by disc diffusion method. The format is functional. As to conditions: read-out: IZ.
The nature of data set [8]: Selectivity index, ratio of IC50 for African green monkey Vero cells to MIC for Mycobacterium tuberculosis H37Rv. Conditions: read-out: Selectivity Index. The class given is toxicity, cell-based.
The subject of the next data set is Vero. As to the kind of experiment: Cytotoxicity against African green monkey Vero cells assessed as growth inhibition after 3 days by MTT assay. The class given is cell-based. As to conditions: Chlorocebus sabaeus, 72 h.
Data set [9] concerns Escherichia coli. As to the kind of experiment: Antibacterial activity against Escherichia coli assessed as zone of inhibition at 75 ug/ml incubated for 18-24 hrs at 37 degC by disc diffusion method. As to conditions: read-out: IZ. The class given is functional.

Take `O=C(N/N=C/c1c[nH]nc1-c1cccc(Cl)c1)c1ccncc1`: the MIC in data set [1] is 4.9 µM (≈ 1.6 µg/mL). In addition, the zone of inhibition at 50 µg/mL with Staphylococcus aureus [2] was determined as 18 mm; in the data set with Escherichia coli [5], 20 mm; in the data set on Pseudomonas aeruginosa [6] it was 15 mm. Also, the inhibition at 72 h, 62.5 ug/ml in data set [3] was determined as 26.3%. Further, the zone of inhibition at 75 µg/mL is 23 mm in the data set with Staphylococcus aureus [4], 19 mm in the data set with Pseudomonas aeruginosa [7] and 24 mm with Escherichia coli [9]. Moreover, the selectivity ratio in data set [8] was greater than 625. Also, in the data set on Vero, the IC50 was greater than 1000 µg/mL.
